From PMC12389022, “Drug Metabolism and Pharmacokinetic Evaluation of a Novel RNase H2 Inhibitor for the Treatment of Triple-Negative Breast Cancer” (Pharmaceutics, 2025)
Values after ≈ are worked out from the molar mass of the structure shown. Read-outs that look alike come from different tables or passages of the source.

Columns and labels:
[1] = Metabolite identification and relative exposure in rat plasma and urine (UHPLC-QTOF MS/MS); type: in vivo, Sprague Dawley rats; settings: for Cumulative excretion in 24 h urine as fraction of total amount of R14 and its metabolites: rat urine 0-24 h, peak area x urine volume; for Source P (detected in plasma): rat plasma after single oral dose of 50 mg/kg R14; for Source U (detected in urine): rat urine 0-24 h after single oral dose of 50 mg/kg R14
Description: (§1) For the oral pharmacokinetics of R14, rats were fasted overnight and 4 h post-administration of 50 mg/kg oral dose of R14, with free access to water in metabolic cages. Serial blood samples (0.15 mL each) were collected from the cannulated jugular vein into heparin-coating tubes before dosing and at 5 min, 15 min, 30 min, 45 min, 1 h, 2 h, 3 h, 4 h, 6 h, 8 h, 10 h, and 24 h time points post dose. Plasma samples were separated immediately by centrifugation of the blood samples at 13,000 rpm for 3 min. For R14 quantification, 10 μL plasma aliquots were mixed with 30 μL of a stabilizing derivatization solution (0.1 M citric acid and 0.1 M sodium sulfite) and stored at −80 °C for analysis by UHPLC-MS/MS. For metabolite identification, 20 μL plasma aliquots were mixed with 80 μL acetonitrile containing 0.5% formic acid and stored at −80 °C for UHPLC-QTOF MS/MS analysis. Urine samples were collected over 0–24 h and stored at −80 °C.
Twenty microliters of urine were mixed with 80 µL of methanol containing 0.5% formic acid, vortexed for 2 min, and centrifuged for 20 min. An 80 µL Aliquot of the supernatant was transferred to a sample vial for metabolite identification using UHPLC-QTOF MS/MS.
(§2) Samples from in vivo pharmacokinetic studies, in vitro blood stability studies, and in vitro hepatic microsome studies were pretreated at the time of collection. Before analysis, the samples were thawed at room temperature, vortexed for 2 min, and centrifuged at 14,000 rpm for 20 min. An 80 µL aliquot of the supernatant was transferred to a sample vial for UHPLC-QTOF MS/MS analysis.
Metabolite identification was performed on a UHPLC-X500B QTOF MS/MS (SCIEX, Framingham, MA, USA) equipped with a Synergi Fusion-RP column (4 µm, 150 × 2 mm, 80 Å, Phenomenex, Torrance, CA, USA). The mobile phases were water with 0.1% formic acid (A) and methanol with 0.1% formic acid (B), delivered at a flow rate of 0.4 mL/min. The autosampler and oven temperatures were set at 10 °C and 30 °C, respectively. The running time was 30 min. The gradient elution was as follows: 10% B for 0.5 min; increased to 70% over 20 min; then to 95% over 2 min; held at 95% for 5 min; returned to 10% in 0.5 min; and equilibrated for 2 min.
The QTOF MS/MS was operated In positive ion mode. Data were acquired in Information-dependent-acquisition (IDA) mode, starting with a TOF MS survey scan to detect precursor ions, followed by MS/MS scans of the top 10 most intense ions (intensity > 200 counts/s). TOF MS was set to scan m/z 200–700 with a 0.1 s accumulation time, while TOF MS/MS scanned m/z 50–700 with a 0.04 s accumulation time. The source temperature and spray voltage were set at 500 °C, and 5000 v, respectively. Curtain gas and collision gas (CAD) were set at 30 and 9 psi, while nebulizer gas (gas 1) and heater gas (gas 2) were set at 55 and 60 psi, respectively. The declustering potential (DP) was 50 V. Collision energy (CE) were 10 v for TOF MS and 35 v (±15 v spread) for TOF MS/MS. Data were acquired using SCIEX OS software 1.6.1, and processed on SCIEX OS software 3.1.0.
To elucidate the metabolic pathways and identify unknown metabolites of R14, we employed a multi-step strategy. First, MS/MS fragmentation analysis was performed to characterize the fragmentation pattern of R14 and identify its key fragment ions, which served as references for metabolite identification. Next, based on the chemical structure of R14, potential biotransformation pathways mediated by hepatic cytochrome P450 enzymes were predicted. These predicted metabolites were then screened in urine samples collected during in vivo pharmacokinetic studies to identify excreted metabolites. Metabolites detected in urine were subsequently cross-verified in plasma samples from the same in vivo studies. If verification failed or additional metabolites were suspected, the analysis reverted to the initial fragmentation step to identify downstream or daughter metabolites. […]

[2] = tested on: MDA-MB-231 tumor; parameters: method as in PMID 42013846; settings: oral R14 vs vehicle controls; cited from earlier work
[3] = parameters: method as in PMID 36924633; settings: mouse whole blood stored at −70 °C; cited from earlier work
[4] = cited from earlier work
[5] = Pharmacokinetics of R14 in rats after i.v. and oral dose; type: in vivo, Sprague Dawley rats; settings: for AUC(0-t): read-out: AUC0→10h
Description: This study was carried out in accordance with the recommendation of the Guidelines for the Care and Use of Laboratory Animals (2011) and was in compliance with the ARRIVE guidelines. All animal experiments were conducted with prior approval from the Texas Southern University Institutional Animal Care and Use Committee (IACUC). Male adult SD rats (250–350 g) were purchased from Envigo RMS (Indianapolis, IN, USA) and were housed in standard rodent cages (3–4 rats per cage) with a 12 h light/dark cycle at 22–24 °C and had free access to standard laboratory rodent chow (7012 Teklad mouse/rat diet from Envego, Inc., Indianapolis, IN, USA) and water. Rats were acclimated to the animal care facility for at least 7 days before the start of each experiment. Only male rats were used in the present study to minimize pharmacokinetic variations due to sex differences.
To facilitate the timed withdrawal of multiple blood samples from each animal, the right jugular vein of each animal was cannulated one day prior to drug administration. The cannulas were flushed daily with 0.5 mL of sterile heparinized saline (100 units/mL). Under anesthesia using a cocktail of ketamine/acetopromazine/xylazine (50:3.3:3.3 mg/kg ip), silicone elastomer tubing (0.02 × 0.037 in) was inserted into the jugular vein, secured with a silk suture, and exteriorized in the dorsal intrascapular area. The surgical incision was prophylactically treated with nitrofurazone wound powder and closed with surgical staples.
as §1
For the intravenous (i.v.) pharmacokinetics of R14, another group of jugular vein cannulated rats received an i.v. administered 5 mg/kg R14 dose. Serial blood samples (0.15 mL each) were collected from the cannulated jugular vein into heparin-coating tubes before dosing and at 2 min, 5 min, 10 min, 30 min, 45 min, 1 h, 2 h, 4 h, 6 h, 8 h, 10 h, and 24 h time points post-dose. Plasma was processed similarly, with aliquots prepared for both R14 quantification and metabolite analysis, and urine collected over 24 h and stored at −80 °C.
The urine sample (10 μL each) was pre-mixed with 30 µL of derivatization agent (also acting as stabilizing agent). Pre-mixed plasma samples (with the derivation agent before storage) or the pre-mixed urine samples were added to 360 µL of acetonitrile (containing 2.5 ng/mL warfarin), vortexed for 2 min, and then centrifuged for 20 min. The supernatant (80 μL) was mixed with 160 µL of acetonitrile containing 0.5% formic acid, and finally, 100 μL aliquot of the mixture was transferred to a sample vial for UHPLC-MS/MS analysis.
R14 quantification via monitoring R14 bisulfite was conducted using a previously published method on a 6500+ Triple Quad UHPLC-MS/MS System (SCIEX, Framingham, MA, USA) coupled with a Synergi Fusion-RP column (50 × 2 mm, 4 µm, 80 Å, Phenomenex Inc., Torrance, CA, USA). […]

[6] = tested on: Caco-2 cell monolayer; test: R14 permeability in the Caco-2 cell culture model; type: in vitro ADME; settings: R14 10 µM
Description: (§3) The permeability of R14 was assessed using the Caco-2 cell monolayer model, following the protocol by Liu and Hu (Liu 2002). Caco-2 cells (2.5 × 10^5 cells per insert; 4.2 cm^2 area, 3 μm pore size) were seeded and cultured at 37 °C with 90% humidity and 5% CO2 for 19–22 days. Monolayer integrity was evaluated using transepithelial electrical resistance (TEER) measurements with a Millicell ERS-2 system. Only monolayers with TEER values between 500 and 750 Ω·cm^2 were used.
(§4) Hank’s Balanced Salt Solution (HBSS), supplemented with NaHCO3 (0.35 g/L), HEPES (5.96 g/L), and glucose (3.5 g/L), adjusted to the desired pH, was used as the transport medium. Cells from passages 41–49 were used.
(§5) After confirming TEER, R14 working solution (10 µM) was added to either the apical or basolateral side of the insert, designating that side as the donor compartment, while the opposite side served as the receiver compartment. Samples (200 µL) were collected from both the apical (A) and basolateral (B) sides at 0, 0.5, 1, 2, and 4 h. The removed volume was immediately replaced with either fresh R14 working solution (on the donor side) or fresh buffer (on the receiver side) to maintain consistent volume and drug concentration throughout the experiment.
(§6) For analysis, 100 µL of acetonitrile containing 0.6% formic acid and internal standard was added to each collected sample. After vortexing and centrifugation, the supernatant was analyzed using UHPLC-MS/MS for R14 quantification.
(§7) The apparent permeability coefficient (P, cm/s) was calculated using the following equation: P=dQ/dt/A·C0 where dQ/dt is the permeability rate of drug appearance in the receiver compartment (µmol/s), A is the surface area of the cell monolayer (cm^2), and C0 is the initial concentration in the donor compartment (µmol/mL).
(§8) Permeability was assessed in both directions (apical to basolateral and basolateral to apical), and the efflux ratio was calculated as: Effluxratio=Pb−a/Pa−b where Pa−b is the permeability coefficient from apical to basolateral, and Pb−a is the permeability coefficient from basolateral to apical.

[7] = R14 permeability in the Caco-2 cell culture model; type: in vitro ADME; settings: human, Caco-2, R14 10 µM
Description: as §3, §4, §5, §6, §7, §8

[8] = R14 incubation in rat whole blood; type: in vitro ADME; settings: R14 10 µg/mL, room temperature, 3 days
Description: Previously, we observed the complete disappearance of R14 from mouse whole blood samples after being stored for 10 days in a −70 °C freezer, raising concerns about its stability under typical storage conditions. To further investigate the degradation and potential metabolic transformation of R14 in whole blood, we spiked rat whole blood with R14 (10 µg/mL) and left it at room temperature for 3 days. Room temperature incubation allows for ongoing enzymatic and non-enzymatic processes, providing insight into R14’s metabolic stability and degradation pathways under physiologically relevant but uncontrolled conditions. After incubation, a 4X volume of methanol containing 0.5% formic acid was added to the samples, followed by vortexing for 3 min and centrifugation to obtain supernatant prior to metabolite identification using the UHPLC coupled with quadrupole time-of-flight tandem mass spectrometry (UHPLC-QTOF MS/MS).
as §2, with “analysis. […]” for “analysis.”

[9] = male, Sprague Dawley, iv, i.v. 5 mg/kg, rat plasma, n = 3, mean ± SD
[10] = male, Sprague Dawley, rat, plasma, iv, i.v. 5 mg/kg, rats, n = 3, mean ± SD
[11] = male, Sprague Dawley, rat, plasma, oral 50 mg/kg, rats, n = 3, mean ± SD
[12] = male, Sprague Dawley, oral 50 mg/kg, rat plasma, n = 3, mean ± SD

For Cc1ccccc1-n1sc2cc(F)ccc2c1=O [Metabolite R14, 6-Fluoro-2-(2-methylphenyl)-1,2-benzothiazol-3(2H)-one], the “Cumulative excretion in 24 h urine as fraction of total amount of R14 and its metabolites” value [1] is listed as “Less than 1%”, the Survival [2] is listed as “improved survival” and the Tumor size [2] is listed as “significantly reduced”. For the same compound, the “Time to complete disappearance from whole blood samples” value [3] was ≤ 10 days, the “Solubility in DMSO” value ([4]; DMSO) was 25 mg/mL (≈ 96.4 mM) and the Water solubility ([4]; water) was “poorly water soluble”. It also gave an AUC(0-inf) [5, 9] of 1810 ± 444 ng·h/mL, an AUC(0-t) [5, 9] of 1580 ± 477 ng·h/mL and an MRT [5, 10] of 1.63 ± 0.39 h. For the same compound, the half-life [5, 10] was 323 ± 56.4 min, the clearance ([5]; male, Sprague Dawley, rat, plasma, iv, i.v. 5 mg/kg, rats, n = 3, mean ± SD, read-out: CL (systemic clearance) (converted)) was 43.8 mL/min/kg and the Vd ([5]; male, Sprague Dawley, rat, plasma, iv, i.v. 5 mg/kg, rats, n = 3, mean ± SD, read-out: Vd (volume of distribution)) was 20.7 ± 6.11 L/kg. For the same compound, the bioavailability ([5]; male, Sprague Dawley, rat, plasma, oral, 50 mg/kg, oral 50 mg/kg vs i.v. 5 mg/kg, rats, read-out: F% (absolute oral bioavailability)) was 13.4%, the MRT [5, 11] was 2.82 ± 0.5 h and the half-life [5, 11] was 179 ± 84.6 min. The CL/F ([5]; male, Sprague Dawley, rat, plasma, oral 50 mg/kg, rats, n = 3, mean ± SD, read-out: CL/F (apparent clearance) (converted)) was 367 mL/min/kg, the Vd/F ([5]; male, Sprague Dawley, rat, plasma, oral 50 mg/kg, rats, n = 3, mean ± SD, read-out: Vd/F (apparent volume of distribution)) was 93.3 ± 38.1 L/kg and the Tmax ([5]; male, Sprague Dawley, oral 50 mg/kg, rat plasma, n = 3) was 30 min. It also gave an AUC(0-inf) [5, 12] of 2430 ± 344 ng·h/mL, a Cmax [5, 12] of 1150 ± 201 ng/mL and an AUC(0-t) [5, 12] of 2080 ± 255 ng·h/mL. The “F% (absolute oral bioavailability)” value ([5]; oral 50 mg/kg vs i.v. 5 mg/kg, rats) was 13.38%, the Permeability assessment [6] was “moderate permeability” and the Papp A→B at 4 h, 10 µM ([7]; n = 3, read-out: Pa−b (apical-to-basolateral permeability)) was 6.39 ± 0.6 ×10⁻⁶ cm/s. It also gave a Papp B→A at 4 h, 10 µM ([7]; n = 3, read-out: Pb−a (basolateral-to-apical permeability)) of 6.41 ± 1.15 ×10⁻⁶ cm/s and an efflux ratio at 4 h, 10 µM ([7]; read-out: Efflux ratio (Pb−a/Pa−b)) of 1.12.
With Cc1ccccc1N1Sc2cc(F)ccc2C1OC1OC(C(=O)O)C(O)C(O)C1O (stereo not drawn) [Metabolite M4] the “Source P (detected in plasma)” value [1] was “√”, the “Apparent AUC in plasma relative to total AUC of R14 and all identified metabolites” value ([1]; rat plasma, peak area as relative concentration) was 22.3% and the “Cumulative excretion in 24 h urine as fraction of total amount of R14 and its metabolites” value [1] was 48.4%. The “Source U (detected in urine)” value [1] was “√”.
For Cc1ccccc1N1Sc2cc(F)ccc2C1O (stereo not drawn) [Metabolite M1], the “Source P (detected in plasma)” value ([1]; 50 mg/kg) was “low concentrations and relatively low levels and √”, the “Source U (detected in urine)” value [1] was “undetectable” and the “Source B (detected in whole blood incubation)” value [8] was “sole major metabolic product and √”.
